Measurements published in PubChem BioAssay AID316 (DTP/NCI, 2004).
Several values for one entry are separate records, joined by “and”; a condition that tells them apart may be missing. Identical values can stand only once. Inconclusive results and toxic doses are left out. How the source made its calls: active means survival T/C of 150% or more; inactive means T/C below 125% in these data.

Test system: P1534 leukemia ip, CD2F1 mice, survival T/C
Test: NCI In Vivo Anticancer Drug Screen. Data for tumor model P1534 Leukemia (intraperitoneal) in CD2F1 (CDF1) mice
Conditions: higher = longer survival
Method: The antitumor activity of compounds was measured in mice bearing transplantable tumors. Survival or tumor size were measured and the results are expressed as the measurement made in the treated group (T) divided by the measurement made in the vehicle treated control group (C). The tumor model used in this assay is P1534 Leukemia (intraperitoneal) in CD2F1 (CDF1) mice

[1] = endpoint: mean survival time, dose: 12.5 mg/kg/injection, schedule: Q01DX010 (ip), vehicle: saline
[2] = endpoint: mean survival time, dose: 25.0 mg/kg/injection, schedule: Q01DX010 (ip), vehicle: saline
[3] = endpoint: mean survival time, dose: 100.0 mg/kg/injection, schedule: Q01DX010 (ip), vehicle: saline
[4] = endpoint: mean survival time, dose: 150.0 mg/kg/injection, schedule: Q01DX010 (ip), vehicle: water
[5] = endpoint: mean survival time, dose: 300.0 mg/kg/injection, schedule: Q01DX010 (ip), vehicle: water
[6] = endpoint: mean survival time, dose: 50.0 mg/kg/injection, schedule: Q01DX010 (ip), vehicle: saline
[7] = endpoint: mean survival time, dose: 12.5 mg/kg/injection, schedule: Q01DX010 (sc), vehicle: steriod suspending solution
[8] = endpoint: mean survival time, dose: 25.0 mg/kg/injection, schedule: Q01DX010 (sc), vehicle: steriod suspending solution
[9] = endpoint: mean survival time, dose: 400.0 mg/kg/injection, schedule: Q01DX010 (ip), vehicle: water
[10] = endpoint: mean survival time, dose: 10.0 mg/kg/injection, schedule: Q01DX010 (ip), vehicle: saline
[11] = endpoint: mean survival time, dose: 31.3 mg/kg/injection, schedule: Q01DX010 (ip), vehicle: saline
[12] = endpoint: mean survival time, dose: 62.5 mg/kg/injection, schedule: Q01DX010 (ip), vehicle: saline
[13] = endpoint: mean survival time, dose: 15.6 mg/kg/injection, schedule: Q01DX010 (ip), vehicle: saline
[14] = endpoint: mean survival time, dose: 125.0 mg/kg/injection, schedule: Q01DX010 (ip), vehicle: saline

Measured: T/C

CNC(C)C(O)c1ccccc1 (configuration not stated)
inactive: endpoint: mean survival time, dose: 37.5 mg/kg/injection, schedule: Q01DX010 (ip), vehicle: saline 96 % of control | endpoint: mean survival time, dose: 75.0 mg/kg/injection, schedule: Q01DX010 (ip), vehicle: saline 92 % of control

O=C(NCCCC(NC(=O)OCc1ccccc1)C(=O)NCCCCCCNCCCCCCNC(=O)C(CCCNC(=O)OCc1ccccc1)NC(=O)OCc1ccccc1)OCc1ccccc1 (configuration not stated)
inactive: [1] 100 % of control | [2] 100 % of control | [3] 100 % of control

CC1=NN(c2ccccc2)C(=O)C1
inactive: [4] 94 % of control | [5] 91 % of control

O=C(CCCNC(=O)OCc1ccccc1)NCCCCCCCCCCNC(=O)CCCNC(=O)OCc1ccccc1
inactive: [6] 89 % of control | [3] 89 % of control

CC(=O)O[C@]1(C(C)=O)CC[C@H]2[C@@H]3C[C@H](C)C4=CC(=O)C=C[C@]4(C)[C@@]3(F)[C@@H](O)C[C@@]21C
inactive: [7] 103 % of control | [8] 92 % of control

CC(=O)OC(C)(C)/C=C/C(=O)[C@](C)(O)[C@H]1[C@H](O)C[C@@]2(C)[C@@H]3CC=C4[C@@H](C[C@H](O)C(=O)C4(C)C)[C@]3(C)C(=O)C[C@]12C
inactive: endpoint: mean survival time, dose: 0.16 mg/kg/injection, schedule: Q01DX010 (ip), vehicle: saline 96 % of control | endpoint: mean survival time, dose: 0.25 mg/kg/injection, schedule: Q01DX010 (ip), vehicle: saline 100 % of control | endpoint: mean survival time, dose: 0.38 mg/kg/injection, schedule: Q01DX010 (ip), vehicle: saline 103 % of control

CCNc1nncs1
inactive: endpoint: mean survival time, dose: 8.0 mg/kg/injection, schedule: Q01DX010 (ip), vehicle: saline 100 % of control | endpoint: mean survival time, dose: 16.0 mg/kg/injection, schedule: Q01DX010 (ip), vehicle: saline 96 % of control

O=C1C(=O)N(CN(CCO)CCO)c2ccccc21
inactive: [6] 96 % of control | [3] 100 % of control | endpoint: mean survival time, dose: 200.0 mg/kg/injection, schedule: Q01DX010 (ip), vehicle: saline 100 % of control | endpoint: mean survival time, dose: 400.0 mg/kg/injection, schedule: Q01DX010 (ip), vehicle: saline 100 % of control

CN1C2CCC1CC(OC(=O)C(CO)c1ccccc1)C2 (configuration not stated)
inactive: [2] 96 % of control | [6] 100 % of control

N=C(N)SCc1c2ccccc2c(CSC(=N)N)c2ccccc12
inactive: endpoint: mean survival time, dose: 0.31 mg/kg/injection, schedule: Q01DX010 (ip), vehicle: saline 117 % of control | endpoint: mean survival time, dose: 0.63 mg/kg/injection, schedule: Q01DX010 (ip), vehicle: saline 121 % of control

Cc1nc(N)nc(N)c1-c1ccc(Cl)c(Cl)c1
inactive: endpoint: median survival time, dose: 0.75 mg/kg/injection, schedule: Q01DX009 (ip), vehicle: Klucel (hydroxypropylcellulose) (HPC) 102 % of control | endpoint: median survival time, dose: 1.5 mg/kg/injection, schedule: Q01DX009 (ip), vehicle: Klucel (hydroxypropylcellulose) (HPC) 119 % of control | endpoint: median survival time, dose: 3.0 mg/kg/injection, schedule: Q01DX009 (ip), vehicle: Klucel (hydroxypropylcellulose) (HPC) 107 % of control

O=C(NO)c1ccc([N+](=O)[O-])cc1
inactive: endpoint: mean survival time, dose: 270.0 mg/kg/injection, schedule: Q01DX010 (ip), vehicle: water 108 % of control | [9] 112 % of control

N=[N+]=CC(=O)OCC(N)C(=O)O (configuration not stated)
inactive: endpoint: mean survival time, dose: 15.5 mg/kg/injection, schedule: Q01DX010 (ip), vehicle: saline 119 % of control
active: endpoint: mean survival time, dose: 6.25 mg/kg/injection, schedule: Q01DX010 (ip), vehicle: other 155 % of control

O=C(NCCCC(NC(=O)OCc1ccccc1)C(=O)NCCCNCCCCNCCCNC(=O)C(CCCNC(=O)OCc1ccccc1)NC(=O)OCc1ccccc1)OCc1ccccc1 (configuration not stated)
inactive: endpoint: mean survival time, dose: 2.5 mg/kg/injection, schedule: Q01DX010 (ip), vehicle: saline 100 % of control | [10] 100 % of control

COc1cc(C[C@H]2c3cc(OC)c(OC)cc3CCN2C)c(Oc2cc3c(cc2OC)-c2c(OC)c(OC)cc4c2[C@H](C3)N(C)CC4)cc1OC
inactive: [2] 92 % of control | [6] 92 % of control

C/C=C1\CNC2Cc3c([nH]c4ccccc34)C(=O)CC1C2C(=O)OC (configuration not stated)
inactive: [1] 93 % of control | [2] 103 % of control | [6] 96 % of control | [3] 93 % of control

C[C@@H]1C[C@@H]([C@H](O)CC2CC(=O)NC(=O)C2)C(=O)[C@@H](C)C1
inactive: endpoint: mean survival time, dose: 5.0 mg/kg/injection, schedule: Q01DX010 (ip), vehicle: saline 112 % of control and 100 % of control | [10] 111 % of control and 112 % of control | endpoint: mean survival time, dose: 20.0 mg/kg/injection, schedule: Q01DX010 (ip), vehicle: saline 111 % of control | endpoint: mean survival time, dose: 40.0 mg/kg/injection, schedule: Q01DX010 (ip), vehicle: saline 105 % of control

CCCCNc1ncnc2c1cnn2C
inactive: [11] 100 % of control | [12] 88 % of control and 100 % of control

C[C@]12C[C@H](O)[C@H]3[C@@H](CCC4=CC(=O)CC[C@@]43C)[C@@H]1CC[C@@H]2C(=O)CO
inactive: [7] 107 % of control | [8] 107 % of control | endpoint: mean survival time, dose: 50.0 mg/kg/injection, schedule: Q01DX010 (sc), vehicle: steriod suspending solution 107 % of control | endpoint: mean survival time, dose: 100.0 mg/kg/injection, schedule: Q01DX010 (sc), vehicle: steriod suspending solution 107 % of control

CC(=O)Nc1c(Cl)cc2c(c1Cl)Cc1cc([N+](=O)[O-])ccc1-2
inactive: [13] 107 % of control | [11] 107 % of control | [12] 107 % of control and 100 % of control | [14] 107 % of control

COc1cc2c3c(c4ccc(OC)c(OC)c4c2cc1OC)CN1CCC[C@@H]1C3
inactive: endpoint: mean survival time, dose: 2.5 mg/kg/injection, schedule: Q01DX010 (ip), vehicle: water 105 % of control | endpoint: mean survival time, dose: 5.0 mg/kg/injection, schedule: Q01DX010 (ip), vehicle: water 102 % of control | endpoint: mean survival time, dose: 7.5 mg/kg/injection, schedule: Q01DX010 (ip), vehicle: water 124 % of control | endpoint: mean survival time, dose: 10.0 mg/kg/injection, schedule: Q01DX010 (ip), vehicle: water 113 % of control

CC(=O)N(C)C
inactive: [12] 94 % of control and 100 % of control | [14] 105 % of control and 100 % of control | endpoint: mean survival time, dose: 250.0 mg/kg/injection, schedule: Q01DX010 (ip), vehicle: saline 105 % of control and 100 % of control | endpoint: mean survival time, dose: 500.0 mg/kg/injection, schedule: Q01DX010 (ip), vehicle: saline 100 % of control

NC1=NNC(=O)C1
inactive: endpoint: mean survival time, dose: 100.0 mg/kg/injection, schedule: Q01DX010 (ip), vehicle: water 95 % of control | [4] 95 % of control

NCCc1ccccc1
inactive: [13] 96 % of control | [11] 92 % of control | [12] 100 % of control

COc1cc2c3c(c4ccc(O)cc4c2cc1OC)[C@@H](O)[C@@H]1CCCN1C3
inactive: endpoint: mean survival time, dose: 2.5 mg/kg/injection, schedule: Q01DX009 (ip), vehicle: water 98 % of control | endpoint: mean survival time, dose: 5.0 mg/kg/injection, schedule: Q01DX009 (ip), vehicle: water 113 % of control | endpoint: mean survival time, dose: 15.0 mg/kg/injection, schedule: Q01DX009 (ip), vehicle: water 110 % of control | endpoint: mean survival time, dose: 20.0 mg/kg/injection, schedule: Q01DX010 (ip), vehicle: water 113 % of control | endpoint: mean survival time, dose: 30.0 mg/kg/injection, schedule: Q01DX010 (ip), vehicle: water 86 % of control
active: endpoint: mean survival time, dose: 20.0 mg/kg/injection, schedule: Q01DX009 (ip), vehicle: water 163 % of control

O=C(NO)c1ccncc1
inactive: endpoint: mean survival time, dose: 200.0 mg/kg/injection, schedule: Q01DX010 (ip), vehicle: water 101 % of control | endpoint: mean survival time, dose: 200.0 mg/kg/injection, schedule: Q02DX005 (ip), vehicle: water 106 % of control | [5] 108 % of control | endpoint: mean survival time, dose: 300.0 mg/kg/injection, schedule: Q02DX005 (ip), vehicle: water 99 % of control | endpoint: mean survival time, dose: 335.0 mg/kg/injection, schedule: Q01DX010 (ip), vehicle: water 106 % of control | [9] 106 % of control | endpoint: mean survival time, dose: 400.0 mg/kg/injection, schedule: Q02DX005 (ip), vehicle: water 110 % of control | endpoint: mean survival time, dose: 500.0 mg/kg/injection, schedule: Q01DX010 (ip), vehicle: water 103 % of control | endpoint: mean survival time, dose: 600.0 mg/kg/injection, schedule: Q01DX010 (ip), vehicle: water 111 % of control | endpoint: mean survival time, dose: 600.0 mg/kg/injection, schedule: Q02DX005 (ip), vehicle: water 106 % of control | endpoint: mean survival time, dose: 800.0 mg/kg/injection, schedule: Q02DX005 (ip), vehicle: water 109 % of control

Nc1ncnc2[nH]ncc12
inactive: endpoint: mean survival time, dose: 1.5 mg/kg/injection, schedule: Q01DX010 (ip), vehicle: saline 100 % of control | endpoint: mean survival time, dose: 3.0 mg/kg/injection, schedule: Q01DX010 (ip), vehicle: saline 110 % of control and 100 % of control | endpoint: mean survival time, dose: 6.0 mg/kg/injection, schedule: Q01DX010 (ip), vehicle: saline 120 % of control and 100 % of control | endpoint: mean survival time, dose: 12.0 mg/kg/injection, schedule: Q01DX010 (ip), vehicle: saline 115 % of control and 95 % of control
